The text below walks through data of BindingDB's records for doi:10.1021/jm00001a012 (Ciba-Geigy, 1995).

By IC50 is commonly meant the concentration that gives 50% inhibition.

The experiment has as its target 5-lipoxygenase (Cavia porcellus). Briefly: In vitro 5-lipoxygenase inhibitory activity against A-23187-stimulated conversion of [14C]AA to LTB4 in guinea pig peritoneal polymorphonuclear leukocytes.

The compound `NC(=O)N(O)C[C@H]1COc2ccc(Oc3ccc(F)cc3)cc2O1` [(2S)-2-[[N-(aminocarbonyl)-N-hydroxyamino]methyl]-7-(4-fluorophenoxy)-1,4-benzodioxan] yielded an IC50 of 97 nM.
